Source: publication PMC5643462, “Encrypted Antimicrobial Peptides from Plant Proteins” (Scientific Reports, 2017)
In brackets after ≈: the same amount, converted by molar mass.

How the values were obtained:
Candida albicans = experiment: microbe, parasite or virus in culture; conditions: Candida albicans, ATCC90028, 48 h, pH 7, read-out: Minimum inhibitory concentration, Candida albicans
Procedure: (§1) The susceptibility test of microorganisms was performed to evaluate the inhibitory activity of the IAPs. Protocols M7-A10[50], M27-A3[51] and M38-A2[52] from Clinical & Laboratory Standards Institute (CLSI) were used for bacteria, yeasts and filamentous fungi tests, respectively. Briefly, different concentration of IAPs (256-0.5 µM) were tested against 16 microorganisms, in a final volume of 100 µL. Media conditions, final cell concentration and incubation conditions are presented in Supplementary Material 07, Table S5. Three biological repetitions, with 2 technical replicates each, were performed for each test, on polystyrene flat-bottom 96 wells microplates. The minimum inhibitory concentration (MIC) was defined as the concentration that no cells/hyphae were detected when visualized by optical microscopy.
(§2) Supplementary Material 07, Table S5
(§3) Table S5. Microorganisms and growth conditions.

Fusarium oxysporum = experiment: microbe, parasite or virus in culture; conditions: Fusarium oxysporum, 48 h, pH 7, read-out: Minimum inhibitory concentration, Fusarium oxysporum
Procedure: as §1, §2, §3

Trichoderma asperellum = experiment: microbe, parasite or virus in culture; conditions: Trichoderma asperellum, 48 h, pH 7, read-out: Minimum inhibitory concentration, Trichoderma asperellum
Procedure: as §1, §2, §3

Cryptococcus neoformans = experiment: microbe, parasite or virus in culture; conditions: Cryptococcus neoformans, ATCC28957, 72 h, pH 7, read-out: Minimum inhibitory concentration, Cryptococcus neoformans
Procedure: as §1, §2, §3

Ramularia areola = experiment: microbe, parasite or virus in culture; conditions: Ramulariopsis gossypii, 120 h, pH 7, read-out: Minimum inhibitory concentration, Ramularia areola
Procedure: as §1, §2, §3

Xanthomonas campestris [1] = experiment: Microbicidal activity (minimal killing concentration), plating on agar; type: cell-based, Xanthomonas campestris pv. citri; conditions: 10 µL of MIC and raising concentrations up to 256 µM plated on Mueller-Hinton agar; 28 °C, 24 h; no growth; mean ± SD, 3 biological replicates
Procedure: (§4) The microbicidal activity of the IAPS was also evaluated. […] YPD agar and Mueller-Hinton agar were used for fungi/yeasts and bacteria, respectively. Meanwhile, susceptibility microplates were incubated again to evaluate if there would be any growing after a longer period. For both approaches, the minimal killing concentration (MKC) was defined as the concentration that no growth was observed after incubation. Three biological replicates were performed for each test.
as §2, §3
(§5) Microorganisms Incubation Incubation Starting cell Growth Medium
(§6) Temperature (°C) Time (h) concentration
(§7) Erwinia carotovora 28 24 5.0 x 10 5 Mueller -Hinton
(§8) Xanthomonas campestris pv. citri 28 24 5.0 x 10 5 Mueller -Hinton
(§9) Pseudomonas syringae pv. tabaci 28 24 5.0 x 10 5 Mueller -Hinton

Bacillus subtilis [2] = experiment: as above; type: cell-based, Bacillus subtilis ATCC 23857; conditions: 10 µL of MIC and raising concentrations up to 256 µM plated on Mueller-Hinton agar; 37 °C, 24 h; no growth; mean ± SD, 3 biological replicates
Procedure: as §4, §2, §3, §5

[3] = system: Pseudomonas syringae pv. tabaci; experiment: as above; type: cell-based; conditions: 10 µL of MIC and raising concentrations up to 256 µM plated on Mueller-Hinton agar; 28 °C, 24 h; no growth; mean ± SD, 3 biological replicates
Procedure: as §4, §2, §3, §5, §6, §7, §8, §9

Erwinia carotovora [4] = experiment: as above; type: cell-based; conditions: 10 µL of MIC and raising concentrations up to 256 µM plated on Mueller-Hinton agar; 28 °C, 24 h; no growth; mean ± SD, 3 biological replicates
Procedure: as §4, §2, §3, §5, §6, §7, §8, §9

Escherichia coli [5] = experiment: as above; type: cell-based, Escherichia coli ATCC 25922; conditions: 10 µL of MIC and raising concentrations up to 256 µM plated on Mueller-Hinton agar; 37 °C, 24 h; no growth; mean ± SD, 3 biological replicates
Procedure: as §4, §2, §3, §5

Staphylococcus aureus [6] = experiment: as above; type: cell-based, Staphylococcus aureus ATCC 25923; conditions: 10 µL of MIC and raising concentrations up to 256 µM plated on Mueller-Hinton agar; 37 °C, 24 h; no growth; mean ± SD, 3 biological replicates
Procedure: as §4, §2, §3, §5, §6, §7, §8, §9

Escherichia coli [7] = experiment: microbe, parasite or virus in culture; conditions: ATCC 25922; Mueller-Hinton; 37 °C, 24 h; start 5.0 x 10^5 cells; 256-0.5 µM; mean ± SD of 3 biological repetitions (SD 0 not displayed); N/A = no antimicrobial activity observed
Procedure: as §1, §2, §3

[8] = system: Pseudomonas syringae pv. tabaci; experiment: microbe, parasite or virus in culture; conditions: Mueller-Hinton; 28 °C, 24 h; start 5.0 x 10^5 cells; 256-0.5 µM; mean ± SD of 3 biological repetitions (SD 0 not displayed); N/A = no antimicrobial activity observed
Procedure: as §1, §2, §3

Xanthomonas campestris [9] = experiment: microbe, parasite or virus in culture; conditions: pv. citri; Mueller-Hinton; 28 °C, 24 h; start 5.0 x 10^5 cells; 256-0.5 µM; mean ± SD of 3 biological repetitions (SD 0 not displayed); N/A = no antimicrobial activity observed
Procedure: as §1, §2, §3

Staphylococcus aureus [10] = experiment: microbe, parasite or virus in culture; conditions: ATCC 25923; Mueller-Hinton; 37 °C, 24 h; start 5.0 x 10^5 cells; 256-0.5 µM; mean ± SD of 3 biological repetitions (SD 0 not displayed); N/A = no antimicrobial activity observed
Procedure: as §1, §2, §3

Bacillus subtilis [11] = experiment: microbe, parasite or virus in culture; conditions: ATCC 23857; Mueller-Hinton; 37 °C, 24 h; start 5.0 x 10^5 cells; 256-0.5 µM; mean ± SD of 3 biological repetitions (SD 0 not displayed); N/A = no antimicrobial activity observed
Procedure: as §1, §2, §3

Erwinia carotovora [12] = experiment: microbe, parasite or virus in culture; conditions: Mueller-Hinton; 28 °C, 24 h; start 5.0 x 10^5 cells; 256-0.5 µM; mean ± SD of 3 biological repetitions (SD 0 not displayed); N/A = no antimicrobial activity observed
Procedure: as §1, §2, §3

| MIC (Candida albicans) [µM] | MIC (Fusarium oxysporum) [µM] | MIC (Trichoderma asperellum) [µM] | MIC (Cryptococcus neoformans) [µM] | MIC (Ramularia areola) [µM] | Structure (SMILES) | Minimum microbicidal concentration, Xanthomonas campestris (Xanthomonas campestris [1]) [µM] | Minimum microbicidal concentration, Bacillus subtilis (Bacillus subtilis [2]) [µM] | Minimum microbicidal concentration, Pseudomonas syringae pv. tabaci [3] [µM] | Minimum microbicidal concentration, Erwinia carotovora (Erwinia carotovora [4]) [µM] | Minimum microbicidal concentration, Escherichia coli (Escherichia coli [5]) [µM] | Minimum microbicidal concentration, Staphylococcus aureus (Staphylococcus aureus [6]) [µM] | Minimum inhibitory concentration, Escherichia coli (Escherichia coli [7]) [µM] | Minimum inhibitory concentration, Pseudomonas syringae pv. tabaci [8] [µM] | Minimum inhibitory concentration, Xanthomonas campestris (Xanthomonas campestris [9]) [µM] | Minimum inhibitory concentration, Staphylococcus aureus (Staphylococcus aureus [10]) [µM] | Minimum inhibitory concentration, Bacillus subtilis (Bacillus subtilis [11]) [µM] | Minimum inhibitory concentration, Erwinia carotovora (Erwinia carotovora [12]) [µM] |
| --- | --- | --- | --- | --- | --- | --- | --- | --- | --- | --- | --- | --- | --- | --- | --- | --- | --- |
| 0.27 (≈ 0.25 µg/mL) | 0.54 (≈ 0.499 µg/mL) | 2.16 (≈ 2 µg/mL) | 0.13 (≈ 0.12 µg/mL) | 0.54 (≈ 0.499 µg/mL) | C[C@@H]1[C@H](O)[C@@H](C)/C=C/C=C/C=C/C=C/C=C/C=C/C=C/[C@H](O[C@@H]2O[C@H](C)[C@@H](O)[C@H](N)[C@@H]2O)C[C@@H]2O[C@](O)(C[C@@H](O)C[C@@H](O)[C@H](O)CC[C@@H](O)C[C@@H](O)CC(=O)O[C@H]1C)C[C@H](O)[C@H]2C(=O)O [Amphotericin B] |  |  |  |  |  |  |  |  |  |  |  |  |
|  |  |  |  |  | CC1(C)S[C@@H]2[C@H](NC(=O)[C@H](N)c3ccccc3)C(=O)N2[C@H]1C(=O)O [Ampicilin] | 5.38 ± 0.0 | 0.08 ± 0.0 | 10.77 ± 0.0 | 2.70 ± 0.0 | 10.77 ± 0.0 | 10.77 ± 0.0 | 10.77 (≈ 3.76 µg/mL) | 2.69 (≈ 0.94 µg/mL) | 1.35 (≈ 0.472 µg/mL) | 5.38 (≈ 1.88 µg/mL) | 0.08 (≈ 0.028 µg/mL) | 1.35 (≈ 0.472 µg/mL) |
